Results published in US8906826B2, “Herbicidal compositions comprising 4-amino-3-chloro-5-fluoro-6-(4-chloro-2-fluoro-3-methoxyphenyl) pyridine-2-carboxylic acid or a derivative thereof and imidazolinones” (Dow AgroSciences, LLC, priority 2012, dated 2014).

Legend:
IPOHE = assay: Postemergence foliar-applied, direct seeded rice weeds (Example I); type: in vivo, Ipomoea hederacea Jacq.
Excerpt: (§1) Seeds or nutlets of the desired test plant species were planted in a soil matrix prepared by mixing a loam or sandy loam soil (e.g., 28.6 percent silt, 18.8 percent clay, and 52.6 percent sand, with a pH of about 5.8 and an organic matter content of about 1.8 percent) and calcareous grit in an 80 to 20 ratio. The soil matrix was contained in plastic pots with a volume of 1 quart and a surface area of 83.6 cm^2. When required to ensure good germination and healthy plants, a fungicide treatment and/or other chemical or physical treatment was applied. The plants were grown for 8-22 days in a greenhouse with an approximate 14 h photoperiod which was maintained at about 29° C. during the day and 26° C. during the night. Nutrients (Peters Excel® 15-5-15 5-Ca 2-Mg and iron chelate) were applied in the irrigation solution as needed and water was added on a regular basis. Supplemental lighting was provided with overhead metal halide 1000-Watt lamps as necessary. The plants were employed for testing when they reached the first through fourth true leaf stage.
(§2) Treatments consisted of the acid or esters of 4-amino-3-chloro-5-fluoro-6-(4-chloro-2-fluoro-3-methoxy-phenyl)pyridine-2-carboxylic acid (Compound A), each formulated as an SC (suspension concentrate), and various herbicidal components alone and in combination. Forms of compound A were applied on an acid equivalent basis.
(§3) Other herbicidal components were applied on an acid equivalent basis and include acetolactate synthase (ALS)-inhibiting herbicides (imidazolinone chemical class) imazethapyr ammonium salt formulated as Newpath®, imazamox ammonium salt formulated as Beyond®, imazapic ammonium salt formulated as Plateau®, imazapyr isopropylamine salt formulated as Arsenal®, imazamethabenz-methyl (technical material) and imazaquin isopropylamine salt formulated as Scepter®/Imagine®.
(§4) Treatment requirements were calculated based upon the rates being tested, the concentration of active ingredient or acid equivalent in the formulation, and a 12 mL application volume at a rate of 187 L/ha.
(§5) For treatments comprised of formulated compounds, measured amounts of compounds were placed individually in 25 mL glass vials and diluted in a volume of 1.25% (v/v) Agri-Dex® crop oil concentrated to obtain 12× stock solutions. […] Application solutions were prepared by adding an appropriate amount of each stock solution (e.g., 1 mL) and diluted to the appropriate final concentrations with the addition of 10 mL of an aqueous mixture of 1.25% (v/v) crop oil concentrate so that the final spray solutions contained 1.25+/−0.05% (v/v) crop oil concentrate.
(§6) For treatments comprised of technical compounds, weighed amounts can be placed individually in 25 mL glass vials and dissolved in a volume of 97:3 v/v acetone/DMSO to obtain 12× stock solutions. […] Application solutions can be prepared by adding an appropriate amount of each stock solution (e.g., 1 mL) and diluted to the appropriate final concentrations with the addition of 10 mL of an aqueous mixture of 1.5% (v/v) crop oil concentrate so that the final spray solutions contain 1.25% (v/v) crop oil concentrate. When technical materials are used, the concentrated stock solutions can be added to the spray solutions so that the final acetone and DMSO concentrations of the application solutions are 16.2% and 0.5%, respectively.
(§7) For treatments comprised of formulated and technical compounds, weighed amounts of the technical materials were placed individually in 25 mL glass vials and dissolved in a volume of 97:3 v/v acetone/DMSO to obtain 12× stock solutions, and measured amounts of the formulated compounds were placed individually in 25 mL glass vials and diluted in a volume of 1.5% (v/v) crop oil concentrate or water to obtain 12× stock solutions. […]

DIGSA = assay: as above; type: in vivo, Digitaria sanguinalis (L.) Scop.; settings: Compound A n-Butyl Ester 16 gae/ha
Excerpt: as §1, §2, §3, §4
For treatments comprised of formulated compounds, measured amounts of compounds were placed individually in 25 mL glass vials and diluted in a volume of 1.25% (v/v) Agri-Dex® crop oil concentrated to obtain 12× stock solutions. […]
as §7

ECHOR = assay: In-water applied, transplanted paddy rice weeds (Example II); type: in vivo, Echinochloa oryzoides (Ard.) Fritsch
Description: (§8) Weed seeds or nutlets of the desired test plant species were planted in puddled soil (mud) prepared by mixing a shredded, non-sterilized mineral soil (50.5 percent silt, 25.5 percent clay, and 24 percent sand, with a pH of about 7.6 and an organic matter content of about 2.9 percent) and water at a 1:1 volumetric ratio. The prepared mud was dispensed in 365 mL aliquots into 16-ounce (oz.) non-perforated plastic pots with a surface area of 86.59 square centimeters (cm^2) leaving a headspace of 3 centimeters (cm) in each pot. Mud was allowed to dry overnight prior to planting or transplanting. Rice seeds were planted in Sun Gro MetroMix® 306 planting mixture, which typically has a pH of about 6.0 to about 6.8 and an organic matter content of about 30 percent, in plastic plug trays. Seedlings at the second or third leaf stage of growth were transplanted into 860 mL of mud contained in 32-oz. non-perforated plastic pots with a surface area of 86.59 cm^2 4 days prior to herbicide application. The paddy was created by filling the headspace of the pots with 2.5 to 3 cm of water. When required to ensure good germination and healthy plants, a fungicide treatment and/or other chemical or physical treatment was applied. The plants were grown for 4-22 days in a greenhouse with an approximate 14 h photoperiod which was maintained at about 29° C. during the day and about 26° C. during the night. Nutrients were added as Osmocote® (19:6:12, N:P:K+minor nutrients) at 2 g per 16-oz. pot and 4 g per 32-oz. pot. Water was added on a regular basis to maintain the paddy flood, and supplemental lighting was provided with overhead metal halide 1000-Watt lamps as necessary. The plants were employed for testing when they reached the first through fourth true leaf stage.
Treatments consisted of the acid or esters of 4-amino-3-chloro-5-fluoro-6-(4-chloro-2-fluoro-3-methoxy-phenyl)pyridine-2-carboxylic acid (compound A) each formulated as an SC and various herbicidal components alone and in combination. Forms of compound A were applied on an acid equivalent basis.
as §3, with “included the” for “include”, “(ALS)-inhibiting imidazolinone” for “(ALS)-inhibiting”, “herbicides” for “herbicides (imidazolinone chemical class)”, “material),” for “material)”, “Scepter®.” for “Scepter®/Imagine®.”
(§9) Treatment requirements for each compound or herbicidal component were calculated based upon the rates being tested, the concentration of active ingredient or acid equivalent in the formulation, an application volume of 2 mL per component per pot, and an application area of 86.59 cm^2 per pot.
For formulated compounds, a measured amount was placed in an individual 100 or 200 mL glass vial and was dissolved in a volume of 1.25% (v/v) Agri-Dex® crop oil concentrate to obtain application solutions.
For technical grade compounds, a weighed amount was placed in an individual 100 to 200 mL glass vial and was dissolved in a volume of acetone to obtain concentrated stock solutions. […] The concentrated stock solutions obtained were diluted with an equivalent volume of an aqueous mixture containing 2.5% (v/v) crop oil concentrate so that the final application solutions contained 1.25% (v/v) crop oil concentrate.
Applications were made by injecting with a pipetter appropriate amounts of the application solutions, individually and sequentially, into the aqueous layer of the paddy. Control plants were treated in the same manner with the solvent blank. Applications were made so that all treated plant material received the same concentrations of acetone and crop oil concentrate.
The treated plants and control plants were placed in a greenhouse as described above and water was added as needed to maintain a paddy flood. […]

CYPRO = assay: as above; type: in vivo, Cyperus rotundus L.; settings: Imazapyr IPA 70 gae/ha
Description: as §8, with “Water was added on a regular basis to maintain the paddy flood, and supplemental lighting was provided with overhead metal halide 1000-Watt lamps as necessary. The plants were employed for testing when they reached the first through fourth true leaf stage.” left out
as §9
For formulated compounds, a measured amount was placed in an individual 100 or 200 mL glass vial and was dissolved in a volume of 1.25% (v/v) Agri-Dex® crop oil concentrate to obtain application solutions. […]

SINAR = assay: Postemergence herbicidal activity in cereal crops, greenhouse (Example V); type: in vivo, Sinapis arvensis L.; settings: Imazamethabenz-methyl 200 gai/ha
Description: (§10) Seeds of the desired test plant species were planted in Sun Gro MetroMix® 306 planting mixture, which typically has a pH of 6.0 to 6.8 and an organic matter content of about 30 percent, in plastic pots with a surface area of 103.2 square centimeters (cm^2). When required to ensure good germination and healthy plants, a fungicide treatment and/or other chemical or physical treatment was applied. The plants were grown for 7-36 days in a greenhouse with an approximate 14 hour photoperiod which was maintained at about 18° C. during the day and about 17° C. during the night. Nutrients and water were added on a regular basis and supplemental lighting was provided with overhead metal halide 1000-Watt lamps as necessary. The plants were employed for testing when they reached the second or third true leaf stage.
(§11) Treatments consisted of the benzyl ester of 4-amino-3-chloro-5-fluoro-6-(4-chloro-2-fluoro-3-methoxy-phenyl)pyridine-2-carboxylic acid (Compound A), formulated as an SC, a second cereal herbicide alone and then both in combination.
(§12) Other herbicidal components were applied on an acid equivalent basis and include acetolactate synthase (ALS)-inhibiting herbicides (imidazolinone chemical class) imazamethabenz-methyl formulated as Assert®. Spray solutions of the second cereal herbicide and experimental compound mixtures were prepared by adding the stock solutions to the appropriate amount of dilution solution to form 12 mL spray solution with active ingredients in two- and three-way combinations. […]
(§13) The treated plants and control plants were placed in a greenhouse as described above and watered by sub-irrigation to prevent wash-off of the test compounds. After 20-22 days, the condition of the test plants as compared with that of the control plants was determined visually and scored on a scale of 0 to 100 percent where 0 corresponds to no injury and 100 corresponds to complete kill. […]

VERPE = assay: as above; type: in vivo, Veronica persica Poir.; settings: Imazamethabenz-methyl 200 gai/ha
Description: as §10, §11, §12, §13

PAPRH = assay: as above; type: in vivo, Papaver rhoeas L.; settings: Imazamethabenz-methyl 200 gai/ha
Description: as §10, §11, §12, §13

CIRAR = assay: as above; type: in vivo, Cirsium arvense (L.) Scop.; settings: Imazamethabenz-methyl 200 gai/ha
Description: as §10, §11, §12, §13

CYPIR = assay: Postemergence foliar-applied, direct seeded rice weeds (Example I); type: in vivo, Cyperus iria L.
Excerpt: as §1, §2, §3, §4, §5, §6, §7

CHEAL = assay: Postemergence herbicidal activity in cereal crops, greenhouse (Example V); type: in vivo, Chenopodium album L.; settings: Imazamethabenz-methyl 200 gai/ha
Description: as §10, §11, §12, §13

SASKR = assay: as above; type: in vivo, Salsola iberica L.; settings: Imazamethabenz-methyl 200 gai/ha
Description: as §10, §11, §12, §13

Question: Which “Visual Weed Control (%) - 21 DAA IPOHE Obs” value (IPOHE; Imazaquin IPA 9 gae/ha) does the source give for `CC(C)C1(C)N=C(c2nc3ccccc3cc2C(=O)O)NC1=O` (racemic) [Imazaquin IPA, (±)-2-[4,5-dihydro-4-methyl-4-(1-methylethyl)-5-oxo-1H-imidazol-2-yl]-3-quinolinecarboxylic acid with 2-propanamine, reference compound] here?
Answer: 0%

Question: And the “Visual Weed Control (%) - 21 DAA IPOHE Obs” value (IPOHE; Imazaquin IPA 18 gae/ha)?
Answer: 10%

Question: What about the “Visual Weed Control (%) - 21 DAA IPOHE Obs” value (IPOHE; Imazaquin IPA 36 gae/ha) of the same compound?
Answer: 0%

Question: `CCCCOC(=O)c1nc(-c2ccc(Cl)c(OC)c2F)c(F)c(N)c1Cl` [Compound A n-Butyl Ester] was tested. Which “Visual Weed Control (%) - 20 DAA DIGSA Obs” value (DIGSA) did it give?
Answer: 15%

Question: `CC(C)C1(C)N=C(c2ncccc2C(=O)O)NC1=O` (stereo not drawn) [Imazapyr IPA, 2-[4,5-dihydro-4-methyl-4-(1-methylethyl)-5-oxo-1H-imidazol-2-yl]-3-pyridinecarboxylic acid compound with 2-propanamine, reference compound] was tested. Which “Visual Weed Control (%) - 21 DAA IPOHE Obs” value (IPOHE; Imazapyr IPA 4.38 gae/ha) did it give?
Answer: 50%

Question: And the “Visual Weed Control (%) - 21 DAA IPOHE Obs” value (IPOHE; Imazapyr IPA 8.75 gae/ha)?
Answer: 40%

Question: What about the “Visual Weed Control (%) - 22 DAA ECHOR Obs” value (ECHOR; Imazapyr IPA 70 gae/ha) of the same compound?
Answer: 50%

Question: What about the “Visual Weed Control (%) - 22 DAA ECHOR Obs” value (ECHOR; Imazapyr IPA 140 gae/ha) of the same compound?
Answer: 85%

Question: And the “Visual Weed Control (%) - 22 DAA CYPRO Obs” value (CYPRO)?
Answer: 70%

Question: “methyl 2-[4,5-dihydro-4-methyl-4-(1-methylethyl)-5-oxo-1H-imidazol-2-yl]-4-methylbenzoic acid or methyl 2-[4,5-dihydro-4-methyl-4-(1-methylethyl)-5-oxo-1H-imidazol-2-yl]-5-methylbenzoic acid or mixtures thereof [Imazamethabenz-methyl, reference compound]” was tested. Which “Visual Weed Control (%) - 21 DAA SINAR Obs” value (SINAR) did it give?
Answer: 70%

Question: What about the “Visual Weed Control (%) - 21 DAA VERPE Obs” value (VERPE) of the same compound?
Answer: 0%

Question: What about the “Visual Weed Control (%) - 21 DAA PAPRH Obs” value (PAPRH) of the same compound?
Answer: 0%

Question: And the “Visual Weed Control (%) - 21 DAA CIRAR Obs” value (CIRAR)?
Answer: 0%

Question: And the “Visual Weed Control (%) - 22 DAA CYPIR Obs” value (CYPIR; Imazamethabenz-methyl 43.75 gai/ha)?
Answer: 0%

Question: What about the “Visual Weed Control (%) - 22 DAA CYPIR Obs” value (CYPIR; Imazamethabenz-methyl 87.5 gai/ha) of the same compound?
Answer: 20%

Question: And the “Visual Weed Control (%) - 22 DAA CYPIR Obs” value (CYPIR; Imazamethabenz-methyl 175 gai/ha)?
Answer: 25%

Question: And the “Visual Weed Control (%) - 21 DAA CHEAL Obs” value (CHEAL)?
Answer: 0%

Question: And the “Visual Weed Control (%) - 21 DAA SASKR Obs” value (SASKR)?
Answer: 70%
